Results from patent US6656951B2, “8-aza-bicyclo[3.2.1]octan-3-ol derivatives of 2,3-dihydro-1,4-benzodioxan as 5-HT1A antagonists” (Wyeth, priority 2001, dated 2003).
Structures can show the parent of a compound that is named as a salt. Where two headings read alike, the source gives them in different places.

Tests used:
[1] = biological target: T1, human 5-HT1A receptor (Homo sapiens, UniProt P08908); experiment: HC 5-HT1A affinity (radioligand binding, h5-HT1A.CHO cell membranes)
T1 construct: expressed in transfected cells; membranes
T1 sequence (P08908 1-422): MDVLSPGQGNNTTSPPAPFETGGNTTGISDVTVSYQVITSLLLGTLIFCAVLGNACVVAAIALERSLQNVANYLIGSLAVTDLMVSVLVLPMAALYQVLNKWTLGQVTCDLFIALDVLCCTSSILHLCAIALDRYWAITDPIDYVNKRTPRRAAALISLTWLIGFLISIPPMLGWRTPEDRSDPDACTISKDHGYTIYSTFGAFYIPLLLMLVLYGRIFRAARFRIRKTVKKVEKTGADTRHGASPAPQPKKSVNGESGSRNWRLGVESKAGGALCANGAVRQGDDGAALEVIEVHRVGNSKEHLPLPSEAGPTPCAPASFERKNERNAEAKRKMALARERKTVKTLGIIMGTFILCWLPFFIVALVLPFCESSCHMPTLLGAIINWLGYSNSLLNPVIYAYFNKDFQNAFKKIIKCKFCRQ
Source text: The 5-HT1A affinity of compounds of this invention was established in accordance with standard pharmaceutically accepted test procedures with representative compounds as follows:
Cloning of Human 5-HT1A Receptor:
The PCR cloning of the human 5-HT1A receptor subtype from a human genomic library has been described previously (Chanda et al., 1993). A stable Chinese hamster ovary cell line expressing the human 5-HT1A receptor subtype (h5-HT1A.CHO cells) was employed throughout this study. Cells were maintained in DMEM supplemented with 10% fetal calf serum, non-essential amino acids and penicillin/streptomycin.
Cells were grown to 95-100% confluency as a monolayer before membranes were harvested for binding studies. Cells were gently scraped from the culture plates, transferred to centrifuge tubes, and washed twice by centrifugation (2000 rpm for 10 min., 4° C.) in buffer (50 mM Tris; pH 7.5). The resulting pellets were aliquoted and placed at −80° C. On the day of assay, the cells were thawed on ice, and resuspended in buffer. Studies were conducted using [^3H]8-OH-DPAT as the radioligand. The binding assay was performed in 96 well microtiter plates in a final total volume of 250 μL of buffer. Competition experiments were performed by using 7 concentrations of unlabelled drug and a final ligand concentration of 1.5 nM. Non-specific binding was determined in the presence of 10 μM 5-HT. Saturation analysis was conducted by using [^3H]8-OH-DPAT at concentrations ranging from 0.3-30 nM. Following a 30 minute incubation at room temperature, the reaction was terminated by the addition of ice cold buffer and rapid filtration using a M-96 Brandel Cell Harvester (Gaithersburg, Md.) through a GF/B filter presoaked for 30 minutes in 0.5% polyethyleneimine. […]

[2] = biological target: T2, cloned human 5-HT1A receptors (Homo sapiens, UniProt P08908); experiment: [35S]-GTPγS binding to assess agonism/antagonism at the 5-HT1A receptor; assay type: biochemical
T2 construct: expressed in transfected cells; membranes
T2 sequence (P08908 1-422): T1 sequence (P08908 1-422)
Protocol: Assessment of Agonism/Antagonism at the 5-HT1A Receptor Using [^35S]-GTPγS Binding to Cloned Human 5-HT1A Receptors:
The [^35S]-GTPγS binding assay was similar to that used by Lazareno and Birdsall (Br. J. Pharmacol. 1993, 109, 1120). Briefly, 5-HT1A cloned receptor membrane fragments (as used for 5-HT1A receptor binding assays) were stored at −70° C. until needed. When needed, membranes were rapidly thawed, centrifuged at 40,000×g for 10 minutes and resuspended at 4° C. for 10 minutes in assay buffer (25 mM HEPES, 3 mM MgCl2, 100 mM NaCl, 1 mM EDTA, 10 uM GDP, […], pH 8.0). These membranes were then incubated for 30 min at 30° C. with [^35S]GTPgS (1 nM) in the presence of vehicle, test compound (one to eight concentrations), or excess 8-OH-DPAT to define maximum agonist response. All reactions are terminated by the addition of ice cold Tris buffer followed by rapid filtration using a Tom Tech® filtration device to separate bound from free [ ^35S]GTPgS. Agonists produce an increase in the amount of [^35S]GTPgS bound whereas antagonists produce no increase in binding. Bound radioactivity was counted and analyzed as above.

[3] = tested on: rats; details: delayed nonmatching to sample radial arm maze task; cited from earlier work
[4] = two-platform spatial discrimination task; cited from earlier work
[5] = post-training administration, autoshaping learning task; cited from earlier work
[6] = n=2, membranes of CHO cells expressing human 5-HT1A, read-out: HC 5-HT1A affinity Ki
[7] = n=1, cloned human 5-HT1A receptor membranes
[8] = n=1, cloned human 5-HT1A receptor membranes, read-out: [35S]GTPgS IC50

SMILES | Ki [1, 6] | melting point | [35S]GTPgS Imax [2, 7] | also measured
CCOc1cccc2c1O[C@@H](CN1C3CCC1CC(O)(c1ccccn1)C3)CO2 (stereo partly drawn) [Example 4, 8-{[(2S)-8-Ethoxy-2,3-dihydro-benzo[1,4]dioxin-2-yl]methyl)-3-pyridin-2-yl-8-aza-bicyclo[3.2.1]octan-3-ol] | 61.6 nM | 95 to 99 °C | – | –
COc1cccc2c1O[C@@H](CN1C3CCC1CC(O)(c1ccccc1)C3)CO2 (stereo partly drawn) [Example 10, 8-{[(2S)-8-Methoxy-2,3-dihydro-1,4-benzodioxin-2-yl]methyl}-3-phenyl-8-azabicyclo[3.2.1]octan-3-ol] | – | 113 to 115 °C | 100% | Ki [1]: 1.53 nM; IC50 [2]: 25 nM
CCOc1cccc2c1O[C@@H](CN1C3CCC1CC(O)(c1ccccc1)C3)CO2 (stereo partly drawn) [Example 2, (S)-8-(8-Ethoxy-2,3-dihydro-benzo[1,4]dioxin-2-ylmethyl)-3-phenyl-8-aza-bicyclo[3.2.1]octan-3-ol] | 3.1 nM | 152 to 155 °C | – | –
CCOc1cccc2c1O[C@@H](CN1C3CCC1CC(O)(c1csc4ccccc14)C3)CO2 (stereo partly drawn) [Example 3, (S)-3-Benzo[b]thiophen-3-yl-8-(8-ethoxy-2,3-dihydro-benzo[1,4]dioxin-2-ylmethyl)-8-aza-bicyclo[3.2.1]octan-3-ol] | 16.7 nM | 111 to 114 °C | – | –
COc1cccc2c1O[C@@H](CN1C3CCC1CC(O)(c1ccccn1)C3)CO2 (stereo partly drawn) [Example 8, 8-{[(2S)-8-Methoxy-2,3-dihydro-1,4-benzodioxin-2-yl]methyl}-3-(2-pyridinyl)-8-azabicyclo[3.2.1]octan-3-ol] | 46 nM | 107 to 110 °C (dec.) | 100% | IC50 [2, 8]: 1480 nM
COc1ccccc1N1CCN(CCN(C(=O)C2CCCCC2)c2ccccn2)CC1 [WAY-100635] | – | – | – | effect on cognitive impairment induced by MK801 [3]: significantly reduced the cognitive impairment; effect on impairment of spatial learning caused by intrahippocampal injection of CPP [4]: prevented the impairment of spatial learning; effect on learning deficit induced by scopolamine [5]: reversed the learning deficit
COc1cccc2c1O[C@@H](CN1C3CCC1CC(O)(c1csc4ccccc14)C3)CO2 (stereo partly drawn) [Example 9, 3-(1-Benzothien-3-yl)-8-{[(2S)-8-methoxy-2,3-dihydro-1,4-benzodioxin-2-yl]methyl}-8-azabicyclo[3.2.1]octan-3-ol] | 1.6 nM | 162 to 164 °C | 100% | IC50 [2, 8]: 36 nM
CCOc1cccc2c1O[C@@H](CN1C3CCC1CC(O)(c1cccc(C(F)(F)F)c1)C3)CO2 (stereo partly drawn) [Example 5, 8-{[(2S)-8-Ethoxy-2,3-dihydro-benzo[1,4]dioxin-2-yl]methyl)-3-(3-trifluoromethylphenyl)-8-aza-bicyclo[3.2.1]octan-3-ol] | 2.9 nM | 86 to 90 °C | – | –
COc1cccc2c1O[C@@H](CN1C3CCC1CC(O)(c1ccc4ccccc4c1)C3)CO2 (stereo partly drawn) [Example 11] | – | 129 to 132 °C | 100% | Ki [1]: 0.81 nM; IC50 [2]: 9.9 nM
COc1cccc2c1O[C@@H](CN1C3CCC1CC(O)(c1cccc(C(F)(F)F)c1)C3)CO2 (stereo partly drawn) [Example 7, 8-{[(2S)-8-Methoxy-2,3-dihydro-1,4-benzodioxin-2-yl]methyl}-3-[3-(trifluoromethyl)phenyl]-8-azabicyclo[3.2.1]octan-3-ol] | 0.33 nM | 104 to 107 °C | – | –
CCOc1cccc2c1O[C@@H](CN1C3CCC1CC(O)(c1ccc4ccccc4c1)C3)CO2 (stereo partly drawn) [Example 1, (S)-8-(8-Ethoxy-2,3-dihydro-benzo[1,4]dioxin-2-ylmethyl)-3-naphthalen-2-yl-8-aza-bicyclo[3.2.1]octan-3-ol] | 5.9 nM | – | – | –
COc1ccccc1C1(O)CC2CCC(C1)N2C[C@H]1COc2cccc(OC)c2O1 (stereo partly drawn) [Example 6, 8-{[(2S)-8-Methoxy-2,3-dihydro-1,4-benzodioxin-2-yl]methyl}-3-(2-methoxyphenyl)-8-azabicyclo[3.2.1]octan-3-ol] | 39 nM | 176 to 178 °C | – | –
CCOc1cccc2c1O[C@@H](CN1C3CCC1CC(O)(c1ccc4ccccc4c1)C3)CO2 (stereo partly drawn) (as salt: oxalate) [Example 1, (S)-8-(8-Ethoxy-2,3-dihydro-benzo[1,4]dioxin-2-ylmethyl)-3-naphthalen-2-yl-8-aza-bicyclo[3.2.1]octan-3-ol] | – | 126 to 129 °C | – | –
